{
  "source": "patent US20080038245A1",
  "about": "“Methods of modulating angiogenesis” (priority 2001, published 2008)",
  "key": {"BREC [1]": {"tested_on": "BREC", "conditions": "VEGF 0.6 nM, sentence cites ref. (2); cited from earlier work"}, "BREC [2]": {"tested_on": "BREC", "test": "Cell migration assay (modified Boyden chamber)", "format": "cell-based, bovine", "conditions": "VEGF 0.6 nM", "method": "Primary cultures of bovine retinal endothelial cells (BREC) were isolated and cultured as described (17). […] A modified Boyden chamber migration assay was performed by using BREC (25). The top and bottom surface of the chamber membrane was coated with collagen I. […] Cells that migrated to the bottom of the chamber were enumerated by counting SYTOX green (Molecular Probes) nucleic acid-stained cells."}, "BREC [3]": {"tested_on": "BREC", "test": "Cell growth assay (DNA content, VEGF-induced proliferation)", "format": "cell-based, bovine", "conditions": "VEGF 0.6 nM, after 4 days", "method": "Primary cultures of bovine retinal endothelial cells (BREC) were isolated and cultured as described (17). Only cells from passages 2-7 were used for the experiments.\nBREC were plated onto 12-well culture plates and incubated overnight in DMEM containing 10% calf serum, after which the cells were infected with adenovirus (23). After incubation for 4 days at 37° C. with or without VEGF (0.6 nM), the cells were lysed in 0.1% SDS, and the DNA content was measured by means of Hoechst-33258 dye and a fluorometer (model TKO-100, Hoefer). E2 promoter binding factor (E2F) decoys were used as described (24)."}, "PKCβ2 and Rb": {"tested_on": "PKCβ2 and Rb", "test": "Association of PKCβ2 with Rb in BREC (immunoprecipitation / immunoblot)", "format": "cell-based, bovine"}, "E2F": {"tested_on": "E2F", "test": "E2F luciferase assay in BREC", "format": "cell-based, bovine", "method": "Luciferase reporter constructs (Mercury Cell Cycle Profiling System, CLONTECH) were introduced into cells with LipofectAMINE reagent (Life Technologies, Rockville, Md.) as instructed by the manufacturer. Luciferase activity was measured by using the Dual-Luciferase Reporter Assay system (Promega)."}, "Rb": {"tested_on": "Rb", "test": "Rb phosphorylation in BREC (phospho-specific antibodies)", "format": "cell-based, bovine", "conditions": "time-dependent, all sites (S249/T242, S780, S795, S807/S811, S821)"}},
  "data": [
    {"compound": "CN(C)CCCn1cc(C2=C(c3c[nH]c4ccccc34)C(=O)NC2=O)c2ccccc21", "note": "[GFX]", "values": [
      {"measurement": "effect on VEGF's mitogenic activity", "setting": "BREC [1]", "result": "blocked VEGF's mitogenic activity completely"},
      {"measurement": "effect on VEGF-increased BREC migration", "setting": "BREC [2]", "result": "inhibited"}
    ]},
    {"compound": "COc1cccc(-c2cc(=O)c3ccccc3o2)c1N", "note": "[PD98059]", "values": [
      {"measurement": "effect on VEGF's mitogenic activity", "setting": "BREC [1]", "result": "blocked VEGF's mitogenic activity completely"},
      {"measurement": "effect on VEGF-increased BREC migration", "setting": "BREC [2]", "result": "inhibited"}
    ]},
    {"compound": "COC[C@H]1OC(=O)c2coc3c2[C@@]1(C)C1=C(C3=O)[C@@H]2CCC(=O)[C@@]2(C)C[C@H]1OC(C)=O", "note": "[wortmannin]", "values": [
      {"measurement": "inhibition of VEGF-induced BREC migration", "setting": "BREC [2]", "result": 41, "unit": "%"}
    ]},
    {"compound": "VEGF", "values": [
      {"measurement": "increase in BREC total DNA content", "setting": "BREC [3]", "result": 2, "unit": "fold"},
      {"measurement": "increase of phosphorylated Rb levels (pS780) in PKCβ2-Rb complex", "setting": "PKCβ2 and Rb; VEGF 0.6 nM, overexpression of PKCβ2", "result": "2- to 3 fold"},
      {"measurement": "increase of amount of PKCβ2-associated Rb protein", "setting": "PKCβ2 and Rb; VEGF 0.6 nM, immunoprecipitation with antibodies to Rb, immunoblot PKCβ2", "result": 1.7, "unit": "fold"},
      {"measurement": "increase of association of PKCβ2 with Rb", "setting": "PKCβ2 and Rb; immunoprecipitation with anti-PKCβ2 antibody, Rb immunoblot", "result": 2.2, "unit": "fold"},
      {"measurement": "increase of E2F activity", "setting": "E2F", "result": 8.6, "unit": "fold"},
      {"measurement": "increase of phosphorylation of Rb", "setting": "Rb", "result": "up to 3 fold"},
      {"measurement": "increase of migration of BREC", "setting": "BREC [2]", "result": 2, "unit": "fold"}
    ]}
  ]
}
